The values below come from US4352788A, “Derivatives of 2,4,6-triiodo-isophthalic acid, processes for their synthesis and X-ray contrasting materials containing these” (Bracco Industria Chimica S.p.A., priority 1979, dated 1982).

One data set is described as follows: Water solubility. In kind it is physicochemical. Conditions: for solubility: water.
For data set [1] the following is noted: cited from earlier work; for water solubility (in words): prior art.
For data set [2] the following is noted: cited from earlier work.
Data set [3] in a line: Viscosity of aqueous solutions. Conditions: for Viscosity at 37° C.: injection solution (Example 14). In kind it is physicochemical.
Data set [4] is described as follows: Solubility in organic solvents. It counts as physicochemical.
The next data set in a line: Osmolality of solutions. It counts as physicochemical. Conditions: 37° C.
Data set [5] is described as follows: Stability (hydrolysis, aqueous solution). In kind it is physicochemical.
Data set [6] in a line: Density of injection solution. In kind it is physicochemical. Conditions: injection solution (Example 14), in g/mL (unit assumed).
Data set [7] in a line: Osmotic pressure of solutions. It counts as physicochemical. Conditions: for Osmotic Pressure: 37° C.
The conditions of data set [8]: compared with METRIZAMIDE; cited from earlier work.
For data set [9] the following is noted: prior art; cited from earlier work.
Where [10] appears, read: at 20° C., Table 1, read-out: Solubility in Water.
[11] abbreviates: aqueous solution containing 300 mg I/ml, 20° C.
The mark [12] stands for this setting: aqueous solution containing 300 mg I/ml, 37° C.
Setting [13] is: aqueous solution containing 400 mg I/ml, 20° C.
The mark [14] stands for this setting: aqueous solution containing 400 mg I/ml, 37° C.
Setting [15] is: at 25° C., read-out: Water solubility.

In brackets after ≈: the same amount, converted by molar mass. Entries after “also recorded” stand apart in the source; their conditions may differ. Like-named read-outs stand apart in the source and are kept apart here.

On to `CC(O)C(=O)N(C)c1c(I)c(C(=O)NC(CO)CO)c(I)c(C(=O)NC(CO)CO)c1I` (racemic) [d,L-5-(N-methyl-α-hydroxypropionyl-amino)-2,4,6-triiodo-isophthalic-acid-bis-(1,3-dihydroxyisopropylamide], for which, in “Water solubility”, the “supersaturation of aqueous solutions” value was “supersaturated” and the “water solubility (in words)” value is “dissolves in water very readily”.

`CC(O)C(=O)Nc1c(I)c(C(=O)NC(CO)CO)c(I)c(C(=O)NC(CO)CO)c1I` (racemic) [d,L-5-α-hydroxypropionylamino-2,4,6-triiodo-isophthalic-acid-bis-(1,3-dihydroxyisopropylamide)]: the “water solubility (in words)” value in the data set “Water solubility” is “only limited solubility in water”.

For the molecule `CC(=O)Nc1c(I)c(C(=O)NCC(O)CO)c(I)c(C(=O)NCC(O)CO)c1I` (stereo not drawn) [5-acetylamino-2,4,6-triiodoisophthalic-acid-bis-(2,3-dihydroxypropylamide)], the water solubility in data set [1] (at 20°-40° C.) was 1 % (w/v). For the same molecule, in data set [1], the “water solubility (in words)” value was “slightly water-soluble”.

As for `CC(=O)Nc1c(I)c(C(=O)N[C@H]2C(O)O[C@H](CO)[C@@H](O)[C@@H]2O)c(I)c(N(C)C(C)=O)c1I` (stereo partly drawn) [C, 3-acetylamino-4-N-methyl-acetylamino-2,4,6-triiodobenzoylglucosamine, reference compound], in [2] (prior art), the “stability in aqueous solutions (in words)” value is listed as “relatively little stability in aqueous solutions”. The “water solubility (in words)” value in data set [1] is listed as “readily water-soluble”. Also, in the data set “Water solubility” (setting [10]), the solubility was about 800 mg/mL (≈ 1010 mM). For the same molecule, the Viscosity worked out at 11.7 cP in [3] (setting [11]), 5.98 cP in data set [3] (setting [12]), 77.8 cP in data set [3] (setting [13]) and 26.9 cP in data set [3] (setting [14]).

`CN(C(=O)CO)c1c(I)c(C(=O)NCC(O)CO)c(I)c(C(=O)NCC(O)CO)c1I` (stereo not drawn) [Compound A, 5-(N-methyl-hydroxyacetylamino)-2,4,6-triiodo-isophthalic-acid-bis-(2,3-dihydroxypropylamide)]: in data set [4], the “Solubility in ethanol (in words)” value is listed as “limited”. In addition, the Solubility in ethanol in data set [4] (ethanol at 25° C.) was determined as 35 parts by volume; in data set [4] (ethanol at the boiling point), 20 parts by volume. For the same molecule, the solubility in [4] (methanol, organic solvent or mixture) was 1000 mg/mL (≈ 1290 mM); in the data set “Water solubility” (setting [10]), over 1000 mg/mL; in the data set “Water solubility” (read-out: solubility in water), 3000 mg/mL (≈ 3860 mM). Also, the “solubility in methanol (in words)” value is on record as “very readily soluble” in [4] (methanol, listed as Example 9) and “very soluble” in [4] (methanol, listed as Example 11). In addition, the Osmolality is recorded as 452 mOsm/kg in “Osmolality of solutions” (250 mg I/ml), 536 mOsm/kg in “Osmolality of solutions” (300 mg I/ml) and 628 mOsm/kg in the data set “Osmolality of solutions” (350 mg I/ml). Further, the “stability (in words)” value in data set [5] is “high stability”. The “Density at 37° C.” value in data set [6] (200 mg iodine/ml) turned out to be 1.207; in [6] (300 mg iodine/ml), 1.316; in [6] (420 mg iodine/ml) it was 1.453. Further, the “water solubility (in words)” value in the data set “Water solubility” is listed as “comparatively particularly high water-solubility; also recorded: higher water solubility”; in the data set “Water solubility” (listed as Example 9), “very readily soluble”; in the data set “Water solubility” (listed as Example 11) it was “very soluble”. Further, the “Osmotic Pressure” value is 11.52 atm in data set [7] (250 mg I/ml), 13.64 atm in [7] (300 mg I/ml) and 15.98 atm in [7] (350 mg I/ml). Also, the “osmotic pressure (in words)” value in data set [7] (compared with IOPAMIDOL) was “less than that of IOPAMIDOL”. The “viscosity of aqueous solutions (in words)” value in [3] is “low viscosity; also recorded: appreciably lower viscosity”. The Viscosity in data set [3] (setting [11]) stood at 7.55 cP; in data set [3] (setting [12]), 4.19 cP; in data set [3] (setting [13]) it was 22.0 cP; in [3] (setting [14]), 9.87 cP. Also, the “Viscosity at 37° C.” value is 1.87 cP in data set [3] (200 mg iodine/ml), 4.19 cP in data set [3] (300 mg iodine/ml) and 20.03 cP in [3] (420 mg iodine/ml).

With `C[C@H](O)C(=O)Nc1c(I)c(C(=O)NC(CO)CO)c(I)c(C(=O)NC(CO)CO)c1I` [Compound B, L-5-α-hydroxypropionylamino-2,4,6-triiodo-isophthalic-acid-bis-(1,3-dihydroxyisopropylamide), reference compound], the “stability (in words)” value in [2] (compared with METRIZAMIDE) is listed as “higher stability”. In addition, the results for the Osmolality in the data set “Osmolality of solutions” (250 mg I/ml), in “Osmolality of solutions” (300 mg I/ml) and in “Osmolality of solutions” (350 mg I/ml) were 514 mOsm/kg, 619 mOsm/kg and 737 mOsm/kg, respectively. Also, the “viscosity of concentrated aqueous solutions (in words)” value in data set [8] was “lower viscosity”. Besides, the water solubility in “Water solubility” (at 20° C., text) was 89.7 % w/v; in the data set “Water solubility” (at 20° C., listed as IOPAMIDOL), 440 mg of iodine per ml. In addition, the “Osmotic Pressure” value was found to be 13.09 atm in data set [7] (250 mg I/ml), 15.76 atm in data set [7] (300 mg I/ml) and 18.77 atm in [7] (350 mg I/ml). In addition, the “toxicity (in words)” value in data set [9] was “very low”. Besides, the Viscosity in data set [3] (setting [11]) stood at 8.95 cP; in data set [3] (setting [12]), 4.70 cP; in [3] (setting [13]), 40.6 cP; in data set [3] (setting [14]), 16.1 cP.

Turning to `C[C@H](O)C(=O)N(C)c1c(I)c(C(=O)NC(CO)CO)c(I)c(C(=O)NC(CO)CO)c1I` [Example 1, L-5-(N-methyl-α-hydroxypropionyl-amino)-2,4,6-triiodoisophthalic-acid-bis-(1,3-dihydroxyisopropylamide)], in the data set “Water solubility” (setting [15]), the solubility is at least 1000 mg/mL.

Take `CCCN(C(=O)[C@H](C)O)c1c(I)c(C(=O)NC(CO)CO)c(I)c(C(=O)NC(CO)CO)c1I` [Example 3]: the solubility in the data set “Water solubility” (setting [15]) was at least 1000 mg/mL.

Take `CCCCN(C(=O)[C@H](C)O)c1c(I)c(C(=O)NC(CO)CO)c(I)c(C(=O)NC(CO)CO)c1I` [Example 4, L-5-(N-butyl-α-hydroxypropionyl-amino)-2,4,6-triiodo-isophthalic-acid-bis-(1,3-dihydroxyisopropylamide)]: the solubility in “Water solubility” (temperature not stated, read-out: Water solubility) was at least 1000 mg/mL.

Consider `CN(C(=O)CO)c1c(I)c(C(=O)NCC2COC(C)(C)O2)c(I)c(C(=O)NCC2COC(C)(C)O2)c1I` (stereo not drawn) [Example 13(A), 5-(N-methyl-hydroxyacetyl-amino)-2,4,6-triiodo-isophthalic-acid-bis-(2,3-isopropylidenedihydroxypropylamide)], for which the “solubility in chloroform (in words)” value in data set [4] (chloroform) is reported as “very soluble”. Moreover, the “Solubility in ethanol (in words)” value in data set [4] is “very soluble”. In data set [4] (methanol), the “solubility in methanol (in words)” value is recorded as “very soluble”. Besides, the “water solubility (in words)” value in “Water solubility” is “only slightly soluble in water”.

As to `C[C@H](O)C(=O)Nc1c(I)c(C(=O)NC(CO)CO)c(I)c(C(=O)NC(CO)CO)c1I` [IOPAMIDOL hydrate, reference compound], in the data set “Water solubility” (at 20° C.), the water solubility is recorded as 307 mg of iodine per ml. Besides, the solubility in the data set “Water solubility” (at 20° C., read-out: water solubility) was determined as 627 mg/mL.

What is called solubility is how much of the substance goes into solution per volume.
